US8216800B2, “Substrates for detecting peptidase activity and methods using the substrates” (Biomerieux, priority 2007, dated 2012)

Legend:
Assay in all cases: Peptidase activity detection on Columbia agar containing substrate
Format in all cases: cell-based
[1] = tested on: Staphylococcus aureus strains; conditions: the two Staphylococcus aureus strains
Procedure: (§1) 40 mg of each substrate are dissolved in 4 ml of dimethylformamide (DMF). This solution is completely taken up in 400 ml of Columbia agar autoclaved beforehand and kept molten at 50° C. The final concentration for each substrate is therefore 100 mg/l. Each of the media is distributed into 90 mm Petri dishes in a proportion of 20 ml per dish.
(§2) 18 microorganism strains derived from collections and belonging to various species of bacteria and of yeasts are inoculated onto these media by semi-quantitative isolation of 10 μl of a suspension at 0.5 McFarland diluted to 1/20. The media are incubated for 24 hours at 37° C., and then the colonies formed are examined visually under UV illumination at 360-365 nm.

enterococcal strains = conditions: the two enterococcal strains
Procedure: as §1, §2

[2] = tested on: Gram-negative bacterial strains; conditions: all the Gram-negative bacterial strains with the exception of the Burkholderia cepacia strain
Procedure: as §1, §2

[3] = tested on: Serratia marcescens NCTC 10211; set-up: key: − = no fluorescence detected; e = trace of fluorescence; +/− = weak fluorescence; + = medium fluorescence; ++ = strong fluorescence; NG = No Growth; conditions: substrate 100 mg/l, 24 hours at 37° C., UV 360-365 nm
Procedure: as §1, §2

[4] = tested on: Candida albicans ATCC 90028; set-up: key: − = no fluorescence detected; e = trace of fluorescence; +/− = weak fluorescence; + = medium fluorescence; ++ = strong fluorescence; NG = No Growth; conditions: substrate 100 mg/l, 24 hours at 37° C., UV 360-365 nm
Procedure: as §1, §2

[5] = tested on: Staphylococcus epidermidis NCTC 11047; set-up: key: − = no fluorescence detected; e = trace of fluorescence; +/− = weak fluorescence; + = medium fluorescence; ++ = strong fluorescence; NG = No Growth; conditions: substrate 100 mg/l, 24 hours at 37° C., UV 360-365 nm
Procedure: as §1, §2

[6] = tested on: Enterobacter cloacae NCTC 11936; set-up: key: − = no fluorescence detected; e = trace of fluorescence; +/− = weak fluorescence; + = medium fluorescence; ++ = strong fluorescence; NG = No Growth; conditions: substrate 100 mg/l, 24 hours at 37° C., UV 360-365 nm
Procedure: as §1, §2

[7] = tested on: Streptococcus pyogenes NCTC 8306; set-up: key: − = no fluorescence detected; e = trace of fluorescence; +/− = weak fluorescence; + = medium fluorescence; ++ = strong fluorescence; NG = No Growth; conditions: substrate 100 mg/l, 24 hours at 37° C., UV 360-365 nm
Procedure: as §1, §2

[8] = tested on: Staphylococcus aureus NCTC 11939; set-up: key: − = no fluorescence detected; e = trace of fluorescence; +/− = weak fluorescence; + = medium fluorescence; ++ = strong fluorescence; NG = No Growth; conditions: Staphylococcus aureus (MRSA) NCTC 11939; substrate 100 mg/l, 24 hours at 37° C., UV 360-365 nm
Procedure: as §1, §2

[9] = tested on: Providencia rettgeri NCTC 7475; set-up: key: − = no fluorescence detected; e = trace of fluorescence; +/− = weak fluorescence; + = medium fluorescence; ++ = strong fluorescence; NG = No Growth; conditions: substrate 100 mg/l, 24 hours at 37° C., UV 360-365 nm
Procedure: as §1, §2

[10] = tested on: Enterococcus faecium NCTC 11047; set-up: key: − = no fluorescence detected; e = trace of fluorescence; +/− = weak fluorescence; + = medium fluorescence; ++ = strong fluorescence; NG = No Growth; conditions: Enterococcus faecium NCTC 11047 (Table 2); substrate 100 mg/l, 24 hours at 37° C., UV 360-365 nm
Procedure: as §1, §2

[11] = tested on: Bacillus subtilis NCTC 9372; set-up: key: − = no fluorescence detected; e = trace of fluorescence; +/− = weak fluorescence; + = medium fluorescence; ++ = strong fluorescence; NG = No Growth; conditions: substrate 100 mg/l, 24 hours at 37° C., UV 360-365 nm
Procedure: as §1, §2

[12] = tested on: Candida glabrata NCPF3943; set-up: key: − = no fluorescence detected; e = trace of fluorescence; +/− = weak fluorescence; + = medium fluorescence; ++ = strong fluorescence; NG = No Growth; conditions: substrate 100 mg/l, 24 hours at 37° C., UV 360-365 nm
Procedure: as §1, §2

[13] = tested on: Yersinia enterocolitica NCTC 11176; set-up: key: − = no fluorescence detected; e = trace of fluorescence; +/− = weak fluorescence; + = medium fluorescence; ++ = strong fluorescence; NG = No Growth; conditions: substrate 100 mg/l, 24 hours at 37° C., UV 360-365 nm
Procedure: as §1, §2

[14] = tested on: Salmonella Typhimurium NCTC 74; set-up: key: − = no fluorescence detected; e = trace of fluorescence; +/− = weak fluorescence; + = medium fluorescence; ++ = strong fluorescence; NG = No Growth; conditions: substrate 100 mg/l, 24 hours at 37° C., UV 360-365 nm
Procedure: as §1, §2

[15] = tested on: Listeria monocytogenes NCTC 11994; set-up: key: − = no fluorescence detected; e = trace of fluorescence; +/− = weak fluorescence; + = medium fluorescence; ++ = strong fluorescence; NG = No Growth; conditions: substrate 100 mg/l, 24 hours at 37° C., UV 360-365 nm
Procedure: as §1, §2

[16] = tested on: Enterococcus faecalis NCTC 775; set-up: key: − = no fluorescence detected; e = trace of fluorescence; +/− = weak fluorescence; + = medium fluorescence; ++ = strong fluorescence; NG = No Growth; conditions: substrate 100 mg/l, 24 hours at 37° C., UV 360-365 nm
Procedure: as §1, §2

[17] = tested on: Staphylococcus aureus NCTC 6571; set-up: key: − = no fluorescence detected; e = trace of fluorescence; +/− = weak fluorescence; + = medium fluorescence; ++ = strong fluorescence; NG = No Growth; conditions: substrate 100 mg/l, 24 hours at 37° C., UV 360-365 nm
Procedure: as §1, §2

[18] = tested on: Escherichia coli NCTC 10418; set-up: key: − = no fluorescence detected; e = trace of fluorescence; +/− = weak fluorescence; + = medium fluorescence; ++ = strong fluorescence; NG = No Growth; conditions: substrate 100 mg/l, 24 hours at 37° C., UV 360-365 nm
Procedure: as §1, §2

[19] = tested on: Burkholderia cepacia 1222; set-up: key to fluorescence intensity: − = no fluorescence detected; e = trace of fluorescence; +/− = weak fluorescence; + = medium fluorescence; ++ = strong fluorescence; NG = No Growth; conditions: Burkholderia cepacia 1222; substrate 100 mg/l, 24 hours at 37° C., UV 360-365 nm
Procedure: as §1, §2

[20] = tested on: Pseudomonas aeruginosa NCTC 10662; set-up: key to fluorescence intensity: − = no fluorescence detected; e = trace of fluorescence; +/− = weak fluorescence; + = medium fluorescence; ++ = strong fluorescence; NG = No Growth; conditions: Pseudomonas aeruginosa NCTC 10662; substrate 100 mg/l, 24 hours at 37° C., UV 360-365 nm
Procedure: as §1, §2

[21] = tested on: Enterococcus faecium NCTC 7171; set-up: key: − = no fluorescence detected; e = trace of fluorescence; +/− = weak fluorescence; + = medium fluorescence; ++ = strong fluorescence; NG = No Growth; conditions: Enterococcus faecium NCTC 7171 (Table 3); substrate 100 mg/l, 24 hours at 37° C., UV 360-365 nm
Procedure: as §1, §2

[22] = tested on: Morganella morganii 462403 (wild); set-up: key: − = no fluorescence detected; e = trace of fluorescence; +/− = weak fluorescence; + = medium fluorescence; ++ = strong fluorescence; NG = No Growth; conditions: substrate 100 mg/l, 24 hours at 37° C., UV 360-365 nm
Procedure: as §1, §2

[23] = tested on: Citrobacter freundii 46262 (wild); set-up: key: − = no fluorescence detected; e = trace of fluorescence; +/− = weak fluorescence; + = medium fluorescence; ++ = strong fluorescence; NG = No Growth; conditions: substrate 100 mg/l, 24 hours at 37° C., UV 360-365 nm
Procedure: as §1, §2

[24] = tested on: Gram-positive bacterial strains and the yeasts; conditions: all the Gram-positive bacterial strains and the yeasts
Procedure: as §1, §2

Compound	fluorescence intensity [3]	fluorescence intensity [4]	fluorescence intensity [5]	fluorescence intensity [6]	fluorescence intensity [7]	fluorescence intensity [8]	fluorescence intensity [9]	fluorescence intensity [10]	fluorescence intensity [11]	fluorescence intensity [12]	fluorescence intensity [13]	fluorescence intensity [14]	fluorescence intensity [15]	fluorescence intensity [16]	fluorescence intensity [17]	fluorescence intensity [18]	fluorescence intensity [19]	fluorescence intensity [20]	further results
C[C@H](N)C(=O)Nc1ccccc1-c1nc2ccccc2o1 [Substrate 1]	++	−	−	++	−	+	++	+/−	−	−	++	++	+/−	+/−	+	++^1	−	++	fluorescence produced [1]: medium green fluorescence; fluorescence produced (enterococcal strains): weak blue fluorescence; fluorescence produced [2]: strong blue fluorescence
C[C@H](N)C(=O)Nc1cc2c(cc1-c1nc3ccccc3n1CCc1ccccc1)OCO2 [Substrate 16]	++	−	−	++	−	−	++		−	−	−	++	−	−	−	++	++	−	fluorescence intensity [21]: −; fluorescence intensity [22]: +; fluorescence intensity [23]: ++
C[C@H](N)C(=O)Nc1ccccc1-c1nc2ccccc2s1 [Substrate 17]	+	NG	NG	+	NG	NG	+	NG	NG	NG	+	NG	NG	NG	NG	+	+	+	toxicity (growth inhibition, text) [24]: inhibited
